# Data reported in patent US12668586B2, “AhR inhibitor, use thereof, and preparation method therefor” (CHONGQING PHARSCIN INNOBIO CO., LTD., priority 2021, dated 2026).
# pIC50: −log10 of the molar value.
# Target: T1, AhR (Homo sapiens, UniProt P35869)
# T1 sequence (P35869 11-848): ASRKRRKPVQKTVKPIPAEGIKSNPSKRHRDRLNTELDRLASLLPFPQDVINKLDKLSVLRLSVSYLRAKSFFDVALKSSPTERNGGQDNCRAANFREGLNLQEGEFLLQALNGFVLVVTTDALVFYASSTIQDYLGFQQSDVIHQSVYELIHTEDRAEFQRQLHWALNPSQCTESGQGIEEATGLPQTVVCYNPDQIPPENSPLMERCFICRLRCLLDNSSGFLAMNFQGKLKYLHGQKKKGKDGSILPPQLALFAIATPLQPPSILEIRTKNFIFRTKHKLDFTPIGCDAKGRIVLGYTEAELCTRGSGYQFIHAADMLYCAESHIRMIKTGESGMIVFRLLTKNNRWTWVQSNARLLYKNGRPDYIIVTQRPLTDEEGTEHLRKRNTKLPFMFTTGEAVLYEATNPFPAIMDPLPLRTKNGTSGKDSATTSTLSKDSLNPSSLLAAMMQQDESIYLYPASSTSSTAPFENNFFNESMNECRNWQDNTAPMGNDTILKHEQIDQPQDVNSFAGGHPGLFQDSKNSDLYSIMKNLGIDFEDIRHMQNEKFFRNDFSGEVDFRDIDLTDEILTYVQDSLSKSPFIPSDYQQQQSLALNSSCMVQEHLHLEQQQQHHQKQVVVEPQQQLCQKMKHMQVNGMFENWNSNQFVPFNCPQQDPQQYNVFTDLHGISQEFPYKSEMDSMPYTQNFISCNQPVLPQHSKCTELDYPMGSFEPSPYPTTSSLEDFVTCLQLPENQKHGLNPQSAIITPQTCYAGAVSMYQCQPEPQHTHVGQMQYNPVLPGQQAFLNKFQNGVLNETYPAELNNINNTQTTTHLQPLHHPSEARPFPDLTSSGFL
# Assay: AhR inhibitory activity experiment, in vitro assay 1: HepG2-Lucia AhR cells, Lucia luciferase reporter (QUANTI-Luc)
# Assay type: cell-based
# Conditions: 24 hours incubation at 37° C., Lucia luciferase in supernatant, read-out: AhR inhibitory activity C50
# Protocol: Test Example: AhR Inhibitory Activity Experiment
# When QUANTI-Luc™ (InvivoGen Company) testing reagents are used, AhR gene signaling pathways can be studied by monitoring the activity of Lucia luciferase in the cell culture supernatant.
# In Vitro Assay 1: Assay on Inhibitory Activity in Human Cell Lines
# Adherent cell layers of HepG2-Lucia™ AhR cells in a logarithmic growth phase were washed with PBS, and then the cells were isolated with trypsin. The isolated cells were centrifuged at 1000 RPM for 5 minutes, the supernatant was removed, and the cells were re-suspended with a test medium by 1.25×10^5 cells/ml.
# 20,000 cells were added to each well of a 96-well plate, and the 96-well plate was placed in a CO2 incubator to incubate the cells at 37° C. for 24 hours in the absence (negative control) or presence of test compounds with gradient increasing concentrations (typical dilutions: 169 pmol/L, 0.5 nmol/L, 1.5 nmol/L; 4.6 nmol/L, 13.7 nmol/L, 41 nmol/L, 123 nmol/L, 370 nmol/L, 1.1 μmol/L, 3.3 μmol/L and 10 μmol/L, in triplicate).
# The 20 μl/well cell supernatant was transferred to a black 96-well plate, a 50 μL/well QUANTI-Luc™ solution was added, and the activity of Lucia luciferase was measured on a multifunctional ELISA reader Spark 10 M (Tecan Company) through a QUANTI-Luc™ luciferase assay system.
# Experimental results are shown in Table 1, wherein for IC50 values, “++++” represents IC50<0.05 μM; “+++” represents IC50 between 0.05 μM and 0.2 μM; “++” represents IC50 between 0.2 μM and 1.0 μM; and “+” represents IC50>1.0 μM.
row,SMILES,pIC50
1,"C[C@H](NC(=O)c1cc(-c2ccc(Cl)cc2)nc(-c2cnn(C)c2)n1)c1cccc(F)c1 [Compound 26, (S)-6-(4-chlorophenyl)-N-(1-(3-fluorophenyl)ethyl)-2-(1-methyl-1H-pyrazol-4-yl)pyrimidine-4-formamide]",> 7.30
2,"O=C(N[C@H]1CCc2ncccc21)c1cc(-c2ccc(OC(F)(F)F)cc2)nc(-c2cccnc2)n1 [Compound 27, (S)-6-(4-trifluoromethoxyphenyl)-N-((S)-6,7-dihydro-5H-cyclopentano[B]pyridin-5-yl)-2-(3-pyridyl)pyrimidine-4-formamide]",> 7.30
3,"Cn1cc(-c2nc(C(=O)N[C@H]3CCc4cc(C#N)ccc43)cc(-c3ccc(Cl)cc3)n2)cn1 [Compound 28, (S)-6-(4-chlorophenyl)-N-(5-cyano-(2,3-dihydro)-(−)-1-yl-2-indene)-2-(1-methyl-1H-pyrazol-4-yl)pyrimidine-4-formamide]",> 7.30
4,"COc1ccc([C@H](C)NC(=O)c2cc(-c3ccc(Cl)cc3)nc(-c3cnn(C)c3)n2)cc1Cl [Compound 29, (S)-6-(4-chlorophenyl)-N-(1-(3-chloro-4-methoxyphenyl)ethyl)-2-(1-methyl-1H-pyrazol-4-yl)pyrimidine-4-formamide]",> 7.30
5,"COc1cc([C@H](C)NC(=O)c2cc(-c3ccc(Cl)cc3)nc(-c3cnn(C)c3)n2)ccc1F [Compound 30, (S)-6-(4-chlorophenyl)-N-(1-(3-methoxy-4-fluorophenyl)ethyl)-2-(1-methyl-1H-pyrazol-4-yl)pyrimidine-4-formamide]",> 7.30
6,"C[C@H](NC(=O)c1cc(-c2ccc(Cl)cc2)nc(-c2cnn(C)c2)n1)c1ccc(F)c(Cl)c1 [Compound 31, (S)-6-(4-chlorophenyl)-N-(1-(3-chloro-4-fluorophenyl)ethyl)-2-(1-methyl-1H-pyrazol-4-yl)pyrimidine-4-formamide]",> 7.30
7,"C[C@H](NC(=O)c1cc(-c2ccc(C(F)(F)F)cc2)nc(-c2cnn(C)c2)n1)c1ccc(F)c(F)c1 [Compound 32, (S)-6-(4-trifluoromethylphenyl)-N-(1-(3,4-difluorophenyl)ethyl)-2-(1-methyl-1H-pyrazol-4-yl)pyrimidine-4-formamide]",> 7.30
8,"C[C@H](NC(=O)c1cc(-c2ccc(C(F)(F)F)cc2)nc(-c2cnn(C)c2)n1)c1ccnc(F)c1 [Compound 33, (S)-6-(4-trifluoromethylphenyl)-N-(1-(2-fluoro-4-pyridine)ethyl)-2-(1-methyl-1H-pyrazol-4-yl)pyrimidine-4-formamide]",> 7.30
9,"C[C@H](NC(=O)c1cc(-c2ccc(OC(F)(F)F)cc2)nc(-c2cnn(C)c2)n1)c1ccnc(F)c1 [Compound 34, (S)-6-(4-trifluoromethoxyphenyl)-N-(1-(2-fluoro-4-pyridine)ethyl)-2-(1-methyl-1H-pyrazol-4-yl)pyrimidine-4-formamide]",> 7.30
10,"C[C@H](NC(=O)c1cc(-c2ccc(Cl)cc2)nc(-c2cccnc2)n1)c1ccnc(F)c1 [Compound 35, (S)-6-(4-chlorophenyl)-N-(1-(2-fluoro-4-pyridine)ethyl)-2-(3-pyridin-4-yl)pyrimidine-4-formamide]",> 7.30
11,"C[C@H](NC(=O)c1cc(-c2ccc(Cl)cc2)nc(-c2cnc(Cl)nc2)n1)c1ccnc(F)c1 [Compound 36, (S)-6-(4-chlorophenyl)-N-(1-(2-fluoro-4-pyridine)ethyl)-2-(2-chloropyrimidin-5-yl)pyrimidine-4-formamide]",< 6.00
12,"C[C@H](NC(=O)c1cc(-c2ccc(Cl)cc2)nc(-c2ccnc(N)c2)n1)c1ccnc(F)c1 [Compound 37, (S)-6-(4-chlorophenyl)-N-(1-(2-fluoro-4-pyridine)ethyl)-2-(2-aminopyridin-4-yl)pyrimidine-4-formamide]",> 7.30
13,"C[C@H](NC(=O)c1cc(-c2ccc(Cl)cc2)nc(-c2ccnc(F)c2)n1)c1ccnc(F)c1 [Compound 38, (S)-6-(4-chlorophenyl)-N-(1-(2-fluoro-4-pyridine)ethyl)-2-(2-fluoropyridin-4-yl)pyrimidine-4-formamide]",> 7.30
14,"C[C@H](NC(=O)c1cc(-c2ccc(Cl)cc2)nc(-c2cnn(C3CC3)c2)n1)c1ccnc(F)c1 [Compound 39, (S)-6-(4-chlorophenyl)-N-(1-(2-fluoro-4-pyridine)ethyl)-2-(1-cyclopropylpyrazol-4-yl)pyrimidine-4-formamide]",< 6.00
15,"C[C@H](NC(=O)c1cc(-c2ccc(Cl)cc2)nc(-c2cnn(C)c2)n1)c1ccc(F)c(C#N)c1 [Compound 40, (S)-6-(4-chlorophenyl)-N-(1-(3-cyano-4-fluorophenyl)ethyl)-2-(1-methyl-1H-pyrazol-4-yl)pyrimidine-4-formamide]",> 7.30
16,"Cn1cc(-c2nc(C(=O)Nc3n[nH]c4ccccc34)cc(-c3ccc(Cl)cc3)n2)cn1 [Compound 41, 6-(4-chlorophenyl)-N-(1H-indazol-3-yl)-2-(1-methyl-1H-pyrazol-4-yl)pyrimidine-4-formamide]",< 6.00
17,"Cn1cc(-c2nc(C(=O)NC3(C)CCN(C(=O)C4CC4)CC3)cc(-c3ccc(Cl)cc3)n2)cn1 [Compound 43, 6-(4-chlorophenyl)-N-((4-yl-4-methylpiperidin-1-yl)(cyclopropyl)ketone)-2-(1-methyl-1H-pyrazol-4-yl)pyrimidine-4-formamide]",> 7.30

# The remaining lines, values ahead:
row,pIC50,SMILES
1,> 7.30,"Cn1cc(-c2nc(C(=O)NC3(C)CCN(CC(F)(F)F)CC3)cc(-c3ccc(Cl)cc3)n2)cn1 [Compound 44, 6-(4-chlorophenyl)-N-((4-yl-4-methylpiperidin-1-yl)trifluoroethyl)-2-(1-methyl-1H-pyrazol-4-yl)pyrimidine-4-formamide]"
2,> 7.30,"Cn1cc(-c2nc(C(=O)NC3(C)CCN(CC(N)=O)CC3)cc(-c3ccc(Cl)cc3)n2)cn1 [Compound 45, 6-(4-chlorophenyl)-N-(2-(4-yl-4-methylpiperidin-1-yl)acetamide)-2-(1-methyl-1H-pyrazol-4-yl)pyrimidine-4-formamide]"
3,> 7.30,"Cn1cc(-c2nc(C(=O)NC3(C)CCN(CC#N)CC3)cc(-c3ccc(Cl)cc3)n2)cn1 [Compound 46, 6-(4-chlorophenyl)-N-(1-(cyanomethyl)-4-methylpiperidin-4-yl)-2-(1-methyl-1H-pyrazol-4-yl)pyrimidine-4-formamide]"
4,6.70 to 7.30,"C[C@H](NC(=O)c1cc(-c2ccc(F)cc2)nc(-c2cnn(C)c2)n1)c1ccnc(F)c1 [Compound 47, (S)-6-(4-fluorophenyl)-N-(1-(2-fluoro-4-pyridine)ethyl)-2-(1-methylpyrazol-4-yl)pyrimidine-4-formamide]"
5,< 6.00,"C[C@H](NC(=O)c1cc(-c2cnn(C)c2)nc(-c2cnn(C)c2)n1)c1ccnc(F)c1 [Compound 48, (S)-6-(1-methyl-1H-pyrazol-4-yl)-N-(1-(2-fluoro-4-pyridine)ethyl)-2-(1-methyl-1H-pyrazol-4-yl)pyrimidine-4-formamide]"
6,< 6.00,"C[C@H](NC(=O)c1cc(-c2ccnc(F)c2)nc(-c2cnn(C)c2)n1)c1ccnc(F)c1 [Compound 49, (S)-6-(2-fluoro-4-pyridine)-N-(1-(2-fluoro-4-pyridine)ethyl)-2-(1-methyl-1H-pyrazol-4-yl)pyrimidine-4-formamide]"
7,< 6.00,"COc1ccc(-c2nc(C(=O)N[C@@H](C)c3ccnc(F)c3)cc(-c3ccc(Cl)cc3)n2)cc1 [Compound 50, (S)-6-(4-chlorophenyl)-N-(1-(2-fluoro-4-pyridine)ethyl)-2-(p-methoxyphenyl)pyrimidine-4-formamide]"
8,> 7.30,"Cn1cc(-c2nc(C(=O)NC3(c4ccc(Cl)cc4)CC3)cc(-c3ccc(Cl)cc3)n2)cn1 [Compound 51, (S)-6-(4-chlorophenyl)-N-(1-(4-chlorophenyl)cyclopropylamine)-2-(1-methyl-1H-pyrazol-4-yl)pyrimidine-4-formamide]"
